Source: patent publication US10696638B2, “Compounds for inhibiting AGC kinase and pharmaceutical compositions comprising the same” (Industrial Technology Research Institute, priority 2017, dated 2020)

target: ROCK2 (Homo sapiens (Human), UniProt O75116); assay: Rho-kinase inhibition ELISA (ROCK active-II, MYPT1 substrate); format: biochemical; details: Table 1; classes given as pIC50; ATP 250 μM; read-out: ROCK2 IC50
Description: To measure Rho-kinase inhibition, IC50 values were determined according to the following ELISA protocol:
ROCK Substrate Coated Plate (Part No 241601): One strip well 96-well plate pre-coated with recombinant MYPT1.
Buffer: 25 mM Tris, pH 7.5, 10 mM MgCl2, 5 mM Glycerol-2-Phosphate, 0.1 mM Na3VO4; 1% DMSO; 2.5 mM DTT; (Enzyme: ROCK active-II) (Cell Biolabs, Catalog #STA-406, Part No. 241505) 0.1 ng/μl.
ATP Solution (Part No. 241604): 100 mM ATP. Final concentration of ATP in reaction mixture: 250 μM.
Secondary Antibody, HRP Conjugate (Part No. 231003).
Biotinylated substrate, diluted to 0.25 μM with buffer described above (without ATP).
1. Purified kinase or cell lysate sample can be used directly in the kinase assay or further diluted with 1× Kinase Buffer. Each sample should be assayed in duplicate.
2. Add 90 μL of the diluted active ROCK-II positive control or unknown ROCK samples to the wells of the substrate plate.
3. Initiate the kinase reaction by adding 10 μL of the 10× Kinase Reaction Buffer containing DTT and ATP. Mix well.
4. Cover with a plate cover and incubate the wells at 30° C. for 30-60 minutes with gentle agitation.
5. Stop kinase reaction by flicking out the content or by adding 50 μL of 0.5M EDTA, pH 8.0, to each well.
6. Remove the plate cover and empty wells. Wash microwell strips 3 times with 250 μL 1× Wash Buffer per well with thorough aspiration between each wash. After the last wash, empty wells and tap microwell strips on absorbent pad or paper towel to remove excess 1× Wash Buffer.
7. Add 100 μL of the diluted anti-phospho-MYPT1 (Thr696) antibody to each well.
8. Cover with the plate cover and incubate at room temperature for 1 hour on an orbital shaker.
9. Remove the plate cover and empty wells. Wash the strip wells 3 times according to step 6 above.
10. Add 100 μL of the diluted HRP-conjugated secondary antibody to each well.
11. Cover with the plate cover and incubate at room temperature for 1 hour on an orbital shaker.
12. Remove the plate cover and empty wells. Wash microwell strips 3 times according to step 6 above. Proceed immediately to the next step.
13. Warm Substrate Solution to room temperature. Add 100 μL of Substrate Solution to each well, including the blank wells. Incubate at room temperature for 5-20 minutes on an orbital shaker.
14. Stop the enzyme reaction by adding 100 μL of Stop Solution into each well, including the blank wells. Results should be read immediately (color will fade over time).
15. Read absorbance of each microwell on a spectrophotometer using 450 nm as the primary wave length.
The given activity (shown in Table 1 and Table 2) is denoted as the negative logarithm of the IC50 (pIC50) as follows: […]

Chain of ROCK2 (O75116 whole entry, species assumed): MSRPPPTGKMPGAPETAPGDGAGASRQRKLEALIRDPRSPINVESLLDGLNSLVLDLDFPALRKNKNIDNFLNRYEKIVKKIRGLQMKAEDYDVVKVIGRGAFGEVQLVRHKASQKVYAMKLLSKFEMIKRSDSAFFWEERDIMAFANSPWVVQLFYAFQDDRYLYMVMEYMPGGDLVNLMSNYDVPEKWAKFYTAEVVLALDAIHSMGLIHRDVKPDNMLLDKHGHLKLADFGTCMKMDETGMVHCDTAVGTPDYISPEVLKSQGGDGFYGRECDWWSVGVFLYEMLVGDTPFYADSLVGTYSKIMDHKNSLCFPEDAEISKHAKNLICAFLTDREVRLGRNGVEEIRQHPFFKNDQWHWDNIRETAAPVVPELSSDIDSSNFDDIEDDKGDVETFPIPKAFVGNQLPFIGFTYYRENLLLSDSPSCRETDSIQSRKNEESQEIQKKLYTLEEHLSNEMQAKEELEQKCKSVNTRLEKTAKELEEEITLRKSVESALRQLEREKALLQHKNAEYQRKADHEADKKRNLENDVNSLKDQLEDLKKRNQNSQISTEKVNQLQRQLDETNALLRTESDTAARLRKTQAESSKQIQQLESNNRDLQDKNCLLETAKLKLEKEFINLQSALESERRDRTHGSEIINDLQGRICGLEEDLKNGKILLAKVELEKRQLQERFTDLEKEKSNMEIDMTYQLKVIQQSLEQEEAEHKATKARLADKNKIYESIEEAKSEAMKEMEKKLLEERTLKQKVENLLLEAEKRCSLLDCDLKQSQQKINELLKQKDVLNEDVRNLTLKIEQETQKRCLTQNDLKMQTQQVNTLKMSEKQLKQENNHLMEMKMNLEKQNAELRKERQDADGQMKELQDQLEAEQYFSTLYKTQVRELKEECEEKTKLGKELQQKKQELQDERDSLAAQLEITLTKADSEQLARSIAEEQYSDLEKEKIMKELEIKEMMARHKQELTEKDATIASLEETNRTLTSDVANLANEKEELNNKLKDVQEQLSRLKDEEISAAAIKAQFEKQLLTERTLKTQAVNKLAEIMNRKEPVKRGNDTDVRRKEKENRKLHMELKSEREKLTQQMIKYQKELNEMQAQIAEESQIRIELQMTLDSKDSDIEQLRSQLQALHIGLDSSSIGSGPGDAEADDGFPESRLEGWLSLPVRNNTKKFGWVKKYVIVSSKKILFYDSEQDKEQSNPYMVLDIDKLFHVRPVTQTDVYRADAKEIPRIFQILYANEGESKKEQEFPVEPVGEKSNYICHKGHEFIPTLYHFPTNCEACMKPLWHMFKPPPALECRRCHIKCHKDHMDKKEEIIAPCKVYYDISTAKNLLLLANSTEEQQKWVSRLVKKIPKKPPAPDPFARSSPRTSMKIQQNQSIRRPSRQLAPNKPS

Row | IC50 | SMILES
1 | 100 to 1000 nM | COc1cccc(CN(CCO)C(=O)Nc2ccc3cnccc3c2)c1 [compound 4]
2 | 10 to 100 nM | CN(C)CCN(Cc1ccc(F)cc1)C(=O)Nc1ccc2cnccc2c1 [compound 2]
3 | 10 to 100 nM | CN(C)CCN(Cc1ccc(Cl)cc1)C(=O)Nc1ccc2cnccc2c1 [compound 1]
4 | 100 to 1000 nM | COc1cccc(CN(CCN(C)C)C(=O)Nc2ccc3cnccc3c2)c1 [compound 3]
5 | 10 to 100 nM | O=C(Nc1ccc2cnccc2c1)N[C@@H](CO)c1ccccc1 [compound 6]
6 | 100 to 1000 nM | CN(C)CCN(Cc1cccc(F)c1)C(=O)Nc1ccc2cnccc2c1 [compound 8]

same assay, conditions: Table 2; classes given as pIC50; ATP 250 μM

Row | SMILES | ROCK IC50
7 | NCC(NC(=S)Nc1ccc2cnccc2c1)c1ccc(F)cc1 (centres unmarked) [compound 26] | ++++ (pIC50>8.0)
8 | CN(C)CCN(Cc1ccc(CO)cc1)C(=S)Nc1cccc2cnccc12 [compound 12] | + (pIC50<6.0)
9 | Cl.NCC(NC(=S)Nc1ccc2cnccc2c1)c1cccc2ccccc12 (centres unmarked) [compound 39] | ++++ (pIC50>8.0)
10 | N#C/N=C(/Nc1ccc2cnccc2c1)N(CCN)Cc1ccccc1 [compound 36] | ++++ (pIC50>8.0)
11 | COc1ccc(CN(CCN)/C(=N\C#N)Nc2ccc3cnccc3c2)cc1 [compound 37] | ++++ (pIC50>8.0)
12 | NCCN(Cc1ccc(F)cc1)C(=O)Nc1cccc2cnccc12 [compound 20] | + (pIC50<6.0)
13 | NCC(NC(=S)Nc1ccc2cnccc2c1)c1ccccc1 (centres unmarked) [compound 24] | ++++ (pIC50>8.0)
14 | COc1cccc(C(CN)NC(=S)Nc2ccc3cnccc3c2)c1 (centres unmarked) [compound 35] | ++++ (pIC50>8.0)
15 | NCCN(Cc1ccc(Cl)cc1)C(=S)Nc1ccc2cnccc2c1 [compound 31] | ++++ (pIC50>8.0)
16 | NCC(NC(=O)Nc1ccc2cnccc2c1)c1ccc(F)cc1 (centres unmarked) [compound 25] | ++++ (pIC50>8.0)

Results, then the compound that gave them:

Row | ROCK IC50 | SMILES
17 | + (pIC50<6.0) | COC(=O)c1ccc(CN(CCN(C)C)C(=O)Nc2cccc3cnccc23)cc1 [compound 10]
18 | + (pIC50<6.0) | NCCN(Cc1ccc(O)cc1)C(=O)Nc1ccc2cnccc2c1 [compound 13]
19 | + (pIC50<6.0) | CSc1ccc(CN(CCN)C(=O)Nc2ccc3cnccc3c2)cc1 [compound 17]
20 | + (pIC50<6.0) | COC(=O)c1ccc(CN(CCN)C(=O)Nc2ccc3cnccc3c2)cc1 [compound 18]

same assay, conditions: Table 2; classes given as pIC50; ATP 250 μM; read-out: ROCK IC50

Row | SMILES | IC50
21 | NCCN(Cc1ccccc1)C(=S)Nc1ccc2cnccc2c1 [compound 27] | 100 to 1000 nM
22 | N#C/N=C(\Nc1ccc2cnccc2c1)N(CCN)Cc1ccc(Br)cc1 [compound 34] | 10 to 100 nM
23 | N#C/N=C(/Nc1ccc2cnccc2c1)N(CCN)Cc1ccc(F)cc1 [compound 30] | 10 to 100 nM
24 | Cc1ccc(CN(CCN)C(=S)Nc2ccc3cnccc3c2)cc1 [compound 32] | 100 to 1000 nM

Next, values leading:

Row | IC50 | SMILES
25 | 100 to 1000 nM | NCCN(Cc1cccc(F)c1)C(=O)Nc1ccc2cnccc2c1 [compound 16]
26 | 100 to 1000 nM | CN(C)CCN(Cc1ccc(F)cc1)C(=S)Nc1cccc2cnccc12 [compound 11]
27 | 100 to 1000 nM | CC(c1ccc(F)cc1)N(CCN)C(=O)Nc1ccc2cnccc2c1 (centres unmarked) [compound 22]
28 | 100 to 1000 nM | NCCN(Cc1ccc(F)cc1)C(=O)Nc1ccc2cnccc2c1 [compound 8]
29 | 100 to 1000 nM | CN(C)CCN(Cc1ccccc1)C(=O)Nc1cccc2cnccc12 [compound 6]
30 | 10 to 100 nM | CC(c1ccc(F)cc1)N(CCN)C(=O)Nc1ccc2cnccc2c1 (centres unmarked) [compound 23]
31 | 100 to 1000 nM | NCCN(Cc1ccc(F)cc1)C(=S)Nc1ccc2cnccc2c1 [compound 19]
32 | 100 to 1000 nM | NCCN(Cc1ccccc1)C(=O)Nc1ccc2cnccc2c1 [compound 14]
33 | 10 to 100 nM | NCCN(Cc1cccc(Cl)c1)C(=S)Nc1ccc2cnccc2c1 [compound 38]
34 | 100 to 1000 nM | NCCN(Cc1cccc(F)c1)C(=S)Nc1ccc2cnccc2c1 [compound 28]
35 | 100 to 1000 nM | NCCN(Cc1ccc(Cl)c(F)c1)C(=S)Nc1ccc2cnccc2c1 [compound 33]
36 | 10 to 100 nM | N#C/N=C(/Nc1ccc2cnccc2c1)N(CCN)Cc1cccc(F)c1 [compound 29]
37 | 100 to 1000 nM | CN(C)CCN(Cc1ccc(Cl)cc1)C(=O)Nc1cccc2cnccc12 [compound 7]
38 | 100 to 1000 nM | NCCN(Cc1ccc(Br)cc1)C(=O)Nc1ccc2cnccc2c1 [compound 15]
